pIC50: −log10 of the molar value. Like-named read-outs stand apart in the source and are kept apart here. Positions of bridges follow the written chain, without caps; N, C: chain ends. Non-standard residues stand in square brackets, D forms with d. Residues, ends and D or L forms follow the SMILES beside them. 1Nal = N[C@@H](Cc1cccc2ccccc12)C(=O)O

This note sets out measurements from US9340590B2 (priority 2011, dated 2016).

Holding throughout (experiment): cell-based
In experiment [1] the target is T1, hNav1.3 (Homo sapiens, UniProt Q9NY46).
Experiment [2] concerns the target T2, hNav1.7 (Homo sapiens, UniProt Q15858). It counts as cell-based.
The target in experiment [3] is T2, hNav1.7.
Experiment [4] concerns the target T1, hNav1.3. It counts as cell-based. As to conditions: Nav1.3 Use IC50.
Experiment [5] addresses T3, hNav1.5 (Homo sapiens, UniProt Q14524).
The target in experiment [6] is T3, hNav1.5. This is another data set of the same source.
[7] abbreviates: IonWorks Quattro, clamped to −110 mV, depolarized to −10 mV, 5 min after compound, n=2, read-out: IWQ Use Nav1.3.
The mark [8] stands for this setting: IonWorks Quattro, clamped to −110 mV, depolarized to −10 mV, 5 min after compound, n=2, read-out: IWQ Use Nav1.5.
The mark [9] stands for this setting: IonWorks Quattro, clamped to −110 mV, depolarized to −10 mV, 5 min after compound, n=2, read-out: IWQ Use Nav1.7.

T2 sequence (Q15858 whole entry, looked up): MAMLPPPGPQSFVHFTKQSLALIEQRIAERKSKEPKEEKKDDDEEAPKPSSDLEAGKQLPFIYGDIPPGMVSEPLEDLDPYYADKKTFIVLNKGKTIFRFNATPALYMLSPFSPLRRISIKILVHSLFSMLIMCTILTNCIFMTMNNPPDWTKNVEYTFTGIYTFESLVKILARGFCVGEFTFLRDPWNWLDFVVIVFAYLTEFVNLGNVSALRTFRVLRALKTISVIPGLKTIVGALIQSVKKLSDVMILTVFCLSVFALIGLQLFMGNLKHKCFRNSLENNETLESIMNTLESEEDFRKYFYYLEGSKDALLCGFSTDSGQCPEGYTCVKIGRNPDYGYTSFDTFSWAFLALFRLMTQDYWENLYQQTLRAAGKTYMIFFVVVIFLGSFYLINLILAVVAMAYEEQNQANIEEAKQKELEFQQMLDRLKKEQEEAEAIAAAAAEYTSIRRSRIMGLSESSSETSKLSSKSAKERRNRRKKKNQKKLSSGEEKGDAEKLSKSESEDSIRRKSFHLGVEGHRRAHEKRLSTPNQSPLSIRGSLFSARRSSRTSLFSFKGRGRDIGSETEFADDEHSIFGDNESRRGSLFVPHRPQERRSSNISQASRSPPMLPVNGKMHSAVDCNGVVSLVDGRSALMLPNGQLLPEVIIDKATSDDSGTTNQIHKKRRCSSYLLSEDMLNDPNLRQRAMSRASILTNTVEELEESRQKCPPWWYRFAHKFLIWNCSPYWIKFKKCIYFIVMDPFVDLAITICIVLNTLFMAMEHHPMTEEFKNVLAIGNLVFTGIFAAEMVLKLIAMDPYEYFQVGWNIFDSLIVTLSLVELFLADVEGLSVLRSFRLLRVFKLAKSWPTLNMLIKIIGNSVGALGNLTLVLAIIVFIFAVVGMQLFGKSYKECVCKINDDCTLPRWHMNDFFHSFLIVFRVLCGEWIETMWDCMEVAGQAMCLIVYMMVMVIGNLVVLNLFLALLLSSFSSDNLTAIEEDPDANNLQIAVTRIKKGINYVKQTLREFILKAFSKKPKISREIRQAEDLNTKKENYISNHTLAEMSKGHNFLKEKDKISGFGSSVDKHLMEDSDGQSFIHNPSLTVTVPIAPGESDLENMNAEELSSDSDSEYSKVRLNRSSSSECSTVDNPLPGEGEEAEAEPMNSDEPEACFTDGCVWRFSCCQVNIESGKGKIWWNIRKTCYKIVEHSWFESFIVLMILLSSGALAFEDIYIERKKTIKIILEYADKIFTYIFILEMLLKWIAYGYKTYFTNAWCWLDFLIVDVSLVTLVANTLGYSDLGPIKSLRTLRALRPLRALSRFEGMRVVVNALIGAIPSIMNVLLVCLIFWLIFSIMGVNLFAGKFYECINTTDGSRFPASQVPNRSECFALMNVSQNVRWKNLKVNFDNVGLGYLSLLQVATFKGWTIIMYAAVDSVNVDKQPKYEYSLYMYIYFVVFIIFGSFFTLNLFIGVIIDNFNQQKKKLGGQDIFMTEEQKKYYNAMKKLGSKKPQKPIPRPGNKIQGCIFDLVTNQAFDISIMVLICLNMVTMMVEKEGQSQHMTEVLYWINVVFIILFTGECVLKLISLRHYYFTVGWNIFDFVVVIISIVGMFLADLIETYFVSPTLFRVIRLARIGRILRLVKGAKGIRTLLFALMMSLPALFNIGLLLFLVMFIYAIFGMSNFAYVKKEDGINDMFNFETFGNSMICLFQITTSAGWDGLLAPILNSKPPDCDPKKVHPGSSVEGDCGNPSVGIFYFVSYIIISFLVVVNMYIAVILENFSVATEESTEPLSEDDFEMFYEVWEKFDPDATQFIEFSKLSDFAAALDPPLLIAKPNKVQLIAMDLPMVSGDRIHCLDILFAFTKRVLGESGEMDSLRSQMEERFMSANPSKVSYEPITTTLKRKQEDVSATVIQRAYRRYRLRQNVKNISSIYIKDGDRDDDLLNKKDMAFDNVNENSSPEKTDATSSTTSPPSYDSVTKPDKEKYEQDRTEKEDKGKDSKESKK
T3 sequence (Q14524 whole entry, looked up): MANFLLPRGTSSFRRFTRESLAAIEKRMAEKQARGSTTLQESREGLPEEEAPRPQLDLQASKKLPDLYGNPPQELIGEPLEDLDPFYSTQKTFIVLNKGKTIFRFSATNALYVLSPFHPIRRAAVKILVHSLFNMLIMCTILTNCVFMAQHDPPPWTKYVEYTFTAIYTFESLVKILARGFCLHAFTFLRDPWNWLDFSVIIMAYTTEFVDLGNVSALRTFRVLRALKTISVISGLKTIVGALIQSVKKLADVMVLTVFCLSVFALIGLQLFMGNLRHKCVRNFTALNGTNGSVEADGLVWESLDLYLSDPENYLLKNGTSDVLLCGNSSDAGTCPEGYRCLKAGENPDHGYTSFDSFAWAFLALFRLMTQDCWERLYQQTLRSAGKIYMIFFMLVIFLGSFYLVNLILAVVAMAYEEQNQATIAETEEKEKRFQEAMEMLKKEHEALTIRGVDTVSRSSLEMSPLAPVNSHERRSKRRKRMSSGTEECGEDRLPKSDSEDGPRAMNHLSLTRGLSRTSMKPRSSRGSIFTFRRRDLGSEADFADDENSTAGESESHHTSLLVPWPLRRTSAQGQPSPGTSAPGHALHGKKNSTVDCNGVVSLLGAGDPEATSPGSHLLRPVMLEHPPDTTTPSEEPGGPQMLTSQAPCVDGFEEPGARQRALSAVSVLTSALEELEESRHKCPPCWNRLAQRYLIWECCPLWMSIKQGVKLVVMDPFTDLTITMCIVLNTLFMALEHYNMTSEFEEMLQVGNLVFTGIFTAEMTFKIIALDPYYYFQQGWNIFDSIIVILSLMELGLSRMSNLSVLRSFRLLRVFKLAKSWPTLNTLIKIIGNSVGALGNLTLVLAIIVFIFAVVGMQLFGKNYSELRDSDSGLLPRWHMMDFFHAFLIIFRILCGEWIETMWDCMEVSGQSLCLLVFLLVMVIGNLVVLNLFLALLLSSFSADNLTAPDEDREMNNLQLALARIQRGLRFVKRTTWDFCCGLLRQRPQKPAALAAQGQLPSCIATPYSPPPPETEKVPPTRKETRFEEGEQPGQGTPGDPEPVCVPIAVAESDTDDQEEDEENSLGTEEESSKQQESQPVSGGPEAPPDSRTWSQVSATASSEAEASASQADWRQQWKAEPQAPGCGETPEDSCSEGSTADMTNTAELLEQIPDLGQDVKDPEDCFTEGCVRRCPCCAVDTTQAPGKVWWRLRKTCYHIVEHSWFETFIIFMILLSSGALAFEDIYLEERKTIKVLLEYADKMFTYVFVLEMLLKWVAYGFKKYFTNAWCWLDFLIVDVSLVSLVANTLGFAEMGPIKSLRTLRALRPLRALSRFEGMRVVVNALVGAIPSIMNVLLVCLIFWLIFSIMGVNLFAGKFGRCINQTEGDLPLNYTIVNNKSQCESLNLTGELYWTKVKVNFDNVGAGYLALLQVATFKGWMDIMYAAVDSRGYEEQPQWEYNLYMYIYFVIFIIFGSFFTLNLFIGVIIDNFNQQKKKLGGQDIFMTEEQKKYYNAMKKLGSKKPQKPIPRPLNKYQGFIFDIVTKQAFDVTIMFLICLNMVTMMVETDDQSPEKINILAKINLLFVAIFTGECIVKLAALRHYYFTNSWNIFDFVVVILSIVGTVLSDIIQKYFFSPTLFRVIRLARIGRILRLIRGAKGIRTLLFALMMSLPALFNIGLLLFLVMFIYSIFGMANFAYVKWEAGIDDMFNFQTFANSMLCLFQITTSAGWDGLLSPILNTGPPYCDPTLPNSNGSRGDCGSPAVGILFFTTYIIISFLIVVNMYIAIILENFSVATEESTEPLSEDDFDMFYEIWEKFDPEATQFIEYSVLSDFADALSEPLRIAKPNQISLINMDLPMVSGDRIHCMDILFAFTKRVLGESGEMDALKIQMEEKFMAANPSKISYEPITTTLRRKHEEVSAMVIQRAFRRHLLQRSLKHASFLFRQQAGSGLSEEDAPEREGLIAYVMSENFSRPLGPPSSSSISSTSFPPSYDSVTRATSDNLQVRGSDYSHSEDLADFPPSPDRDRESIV

Take `CC[C@H](C)[C@@H]1NC(=O)[C@@H]2CSSC[C@@H]3NC(=O)[C@H](C(C)C)NC(=O)[C@H](CC(C)C)NC(=O)[C@H](CC(N)=O)NC(=O)[C@@H]4CCCN4C(=O)[C@H](CCCNC(=N)N)NC(=O)[C@H](CSSC[C@H](NC(=O)[C@@H](N)Cc4cccc5ccccc45)C(=O)N[C@@H](CC(C)C)C(=O)NCC(=O)N[C@@H](Cc4ccccc4)C(=O)N[C@@H](CCSC)C(=O)N[C@@H](CCCNC(=N)N)C(=O)N[C@@H](CCCCN)C(=O)N2)NC(=O)[C@H](CSSC[C@@H](C(=O)N[C@@H](CCCCN)C(=O)N[C@@H](Cc2ccc(O)cc2)C(=O)N[C@H](C(=O)N[C@@H](Cc2ccccc2)C(N)=O)C(C)C)NC(=O)[C@H](Cc2c[nH]c4ccccc24)NC(=O)[C@H](CCCCN)NC(=O)[C@H](Cc2c[nH]cn2)NC(=O)[C@H]([C@@H](C)O)NC(=O)[C@H](CCCNC(=N)N)NC(=O)[C@H](CO)NC3=O)NC(=O)[C@H](CCCCN)NC(=O)[C@H](CC(=O)O)NC(=O)[C@H](CC(N)=O)NC(=O)[C@H](CC(=O)O)NC(=O)[C@@H]2CCCN2C1=O` [SEQ ID NO: 77] (H-[1Nal]CLGFMRKCIPDNDKCCRPNLVCSRTHKWCKYVF-NH2; disulfide 2-17, 9-23, 16-30): the pIC50 in experiment [1] (setting [7]) was 6.85; in experiment [2] it was 6.96; in experiment [3] (Nav1.7 Use IC50) it was 7.64; in experiment [4], 7.18; in experiment [5], 5.12; in experiment [6] (setting [8]) it was 4.87.
As to `CC[C@H](C)[C@@H]1NC(=O)[C@@H]2CSSC[C@@H]3NC(=O)[C@H](C(C)C)NC(=O)[C@H](CC(C)C)NC(=O)[C@H](CC(N)=O)NC(=O)[C@@H]4CCCN4C(=O)[C@H](CCCNC(=N)N)NC(=O)[C@H](CSSC[C@H](NC(=O)[C@@H](N)CC(=O)O)C(=O)N[C@@H](CC(C)C)C(=O)NCC(=O)N[C@@H](Cc4ccccc4)C(=O)N[C@@H](Cc4ccccc4)C(=O)N[C@@H](CCCNC(=N)N)C(=O)N[C@@H](CCCCN)C(=O)N2)NC(=O)[C@H](CSSC[C@@H](C(=O)N[C@@H](CCCCN)C(=O)N[C@@H](Cc2ccc(O)cc2)C(=O)N[C@H](C(=O)N[C@@H](Cc2ccccc2)C(N)=O)C(C)C)NC(=O)[C@H](Cc2c[nH]c4ccccc24)NC(=O)[C@H](CCCCN)NC(=O)[C@H](Cc2cnc[nH]2)NC(=O)[C@H]([C@@H](C)O)NC(=O)[C@H](CCCNC(=N)N)NC(=O)[C@H](CO)NC3=O)NC(=O)[C@H](CCCCN)NC(=O)[C@H](CC(=O)O)NC(=O)[C@H](CC(N)=O)NC(=O)[C@H](CC(=O)O)NC(=O)[C@@H]2CCCN2C1=O` [SEQ ID NO: 89] (H-DCLGFFRKCIPDNDKCCRPNLVCSRTHKWCKYVF-NH2; disulfide 2-17, 9-23, 16-30), the pIC50 in experiment [1] (setting [7]) is 7.52; in experiment [2] it was 7.30; in experiment [3] (Nav1.7 Use IC50), 7.82; in experiment [4], 7.80; in experiment [5] it was 5.50; in experiment [6] (setting [8]) it was 5.04.
In the case of `CCCC[C@@H]1NC(=O)[C@H](Cc2ccccc2)NC(=O)CNC(=O)[C@H](CC(C)C)NC(=O)[C@@H](NC(=O)[C@@H](N)CC(=O)O)CSSC[C@@H]2NC(=O)[C@@H]3CSSC[C@@H](C(=O)N[C@@H](CCCCN)C(=O)N[C@@H](Cc4ccc(O)cc4)C(=O)N[C@H](C(=O)N[C@@H](Cc4ccccc4)C(N)=O)C(C)C)NC(=O)[C@H](Cc4c[nH]c5ccccc45)NC(=O)[C@H](CCCCN)NC(=O)[C@H](Cc4c[nH]cn4)NC(=O)[C@H]([C@@H](C)O)NC(=O)[C@H](CCCNC(=N)N)NC(=O)[C@H](CO)NC(=O)[C@H](CSSC[C@H](NC(=O)[C@H](CCCCN)NC(=O)[C@H](CCCNC(=N)N)NC1=O)C(=O)N[C@@H]([C@@H](C)CC)C(=O)N1CCC[C@H]1C(=O)N[C@@H](CC(=O)O)C(=O)N[C@@H](CC(N)=O)C(=O)N[C@@H](CC(=O)O)C(=O)N[C@@H](CCCCN)C(=O)N3)NC(=O)[C@H](C(C)C)NC(=O)[C@H](CC(C)C)NC(=O)[C@H](CC(N)=O)NC(=O)[C@@H]1CCCN1C(=O)[C@H](CCCNC(=N)N)NC2=O` [SEQ ID NO: 123], the pIC50 was 7.70 in experiment [1] (setting [7]); 7.30 in experiment [2] (setting [9]); 8.10 in experiment [3] (read-out: Nav1.7 Use IC50); 8.05 in experiment [4]; 5.94 in experiment [5]; 5.35 in experiment [6] (setting [8]).
On to `CC[C@H](C)[C@@H]1NC(=O)[C@@H]2CSSC[C@@H]3NC(=O)[C@H](C(C)C)NC(=O)[C@H](CC(C)C)NC(=O)[C@H](CC(N)=O)NC(=O)[C@@H]4CCCN4C(=O)[C@H](CCCNC(=N)N)NC(=O)[C@H](CSSC[C@H](NC(=O)[C@@H](N)CC(=O)O)C(=O)N[C@@H](CC(C)C)C(=O)NCC(=O)N[C@@H](Cc4ccccc4)C(=O)N[C@@H](Cc4cccc5ccccc45)C(=O)N[C@@H](CCCNC(=N)N)C(=O)N[C@@H](CCCCN)C(=O)N2)NC(=O)[C@H](CSSC[C@@H](C(=O)N[C@@H](CCCCN)C(=O)N[C@@H](Cc2ccc(O)cc2)C(=O)N[C@H](C(=O)N[C@@H](Cc2ccccc2)C(N)=O)C(C)C)NC(=O)[C@H](Cc2c[nH]c4ccccc24)NC(=O)[C@H](CCCCN)NC(=O)[C@H](Cc2c[nH]cn2)NC(=O)[C@H]([C@@H](C)O)NC(=O)[C@H](CCCNC(=N)N)NC(=O)[C@H](CO)NC3=O)NC(=O)[C@H](CCCCN)NC(=O)[C@H](CC(=O)O)NC(=O)[C@H](CC(N)=O)NC(=O)[C@H](CC(=O)O)NC(=O)[C@@H]2CCCN2C1=O` [SEQ ID NO: 161], for which the pIC50 is 8.22 in experiment [1] (setting [7]); 8.15 in experiment [2] (setting [9]); 8.52 in experiment [3] (Nav1.7 Use IC50); 8.40 in experiment [4]; 6.45 in experiment [5]; 5.63 in experiment [6] (IWQ Use Nav1.5).
With `CC[C@H](C)[C@@H]1NC(=O)[C@@H]2CSSC[C@@H]3NC(=O)[C@H](C(C)C)NC(=O)[C@H](CC(C)C)NC(=O)[C@H](CC(N)=O)NC(=O)[C@@H]4CCCN4C(=O)[C@H](CCCNC(=N)N)NC(=O)[C@H](CSSC[C@H](NC(=O)[C@@H](N)CC(=O)O)C(=O)N[C@@H](CC(C)C)C(=O)NCC(=O)N[C@@H](CC4CCCCC4)C(=O)N[C@@H](CCSC)C(=O)N[C@@H](CCCNC(=N)N)C(=O)N[C@@H](CCCCN)C(=O)N2)NC(=O)[C@H](CSSC[C@@H](C(=O)N[C@@H](CCCCN)C(=O)N[C@@H](Cc2ccc(O)cc2)C(=O)N[C@H](C(=O)N[C@@H](Cc2ccccc2)C(N)=O)C(C)C)NC(=O)[C@H](Cc2c[nH]c4ccccc24)NC(=O)[C@H](CCCCN)NC(=O)[C@H](Cc2cnc[nH]2)NC(=O)[C@H]([C@@H](C)O)NC(=O)[C@H](CCCNC(=N)N)NC(=O)[C@H](CO)NC3=O)NC(=O)[C@H](CCCCN)NC(=O)[C@H](CC(=O)O)NC(=O)[C@H](CC(N)=O)NC(=O)[C@H](CC(=O)O)NC(=O)[C@@H]2CCCN2C1=O` [SEQ ID NO: 243], the pIC50 was 7.70 in experiment [1]; 8.00 in experiment [2] (setting [9]); 8.52 in experiment [3] (Nav1.7 Use IC50); 8.15 in experiment [4]; 5.47 in experiment [5]; 5.16 in experiment [6] (setting [8]).
